Test results published in PubChem BioAssay AID2060491 (Molecular Pharmacology Branch, DTP, NCI, 2025).

Test system: 857933-349-R-J2-PDC complex spheroids, viability
Test: Anticancer human tumor 857933-349-R-J2-PDC patient-derived colon adenocarcinoma cell line growth inhibition [GQUAD]
Conditions: for IC50: curve of first compound; for viability, T/C: stronger effect = lower value
Summary of the method: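 Tumor cells were grown as complex spheroids with HUVEC endothelial cells and mesenchymal stem cells as stroma. G-quadruplex stabilizers were combined with targeted agents over half-log dilutions from near the clinical Cmax, or from 10 microM.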

[1] = second compound 0.0316 µM, first compound 0.0316 µM
[2] = second compound 0.0316 µM, first compound 0.1 µM
[3] = second compound 0.0316 µM, first compound 0.316 µM
[4] = second compound 0.0316 µM, first compound 1 µM
[5] = second compound 0.0316 µM, first compound 3.16 µM
[6] = second compound 0.0316 µM, first compound 10 µM
[7] = second compound 0.1 µM, first compound 0.0316 µM
[8] = second compound 0.1 µM, first compound 0.1 µM
[9] = second compound 0.1 µM, first compound 0.316 µM
[10] = second compound 0.1 µM, first compound 1 µM
[11] = second compound 0.1 µM, first compound 3.16 µM
[12] = second compound 0.1 µM, first compound 10 µM
[13] = second compound 0.316 µM, first compound 0.0316 µM
[14] = second compound 0.316 µM, first compound 0.1 µM
[15] = second compound 0.316 µM, first compound 0.316 µM
[16] = second compound 0.316 µM, first compound 1 µM
[17] = second compound 0.316 µM, first compound 3.16 µM
[18] = second compound 0.316 µM, first compound 10 µM
[19] = second compound 1 µM, first compound 0.0316 µM
[20] = second compound 1 µM, first compound 0.1 µM
[21] = second compound 1 µM, first compound 0.316 µM
[22] = second compound 1 µM, first compound 1 µM
[23] = second compound 1 µM, first compound 3.16 µM
[24] = second compound 1 µM, first compound 10 µM
[25] = second compound 3.16 µM, first compound 0.0316 µM
[26] = second compound 3.16 µM, first compound 0.1 µM
[27] = second compound 3.16 µM, first compound 0.316 µM
[28] = second compound 3.16 µM, first compound 1 µM
[29] = second compound 3.16 µM, first compound 3.16 µM
[30] = second compound 3.16 µM, first compound 10 µM
[31] = second compound 10 µM, first compound 0.0316 µM
[32] = second compound 10 µM, first compound 0.1 µM
[33] = second compound 10 µM, first compound 0.316 µM
[34] = second compound 10 µM, first compound 1 µM
[35] = second compound 10 µM, first compound 3.16 µM
[36] = second compound 10 µM, first compound 10 µM
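Note: spheroids exposed to compounds for one week before readout.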
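Throughout, for viability, T/C: percent viability relative to vehicle DMSO wells taken as 100%.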

Compound: COc1cc(C2c3cc4c(cc3C(OC3OC5COC(C)OC5C(O)C3O)C3COC(=O)C23)OCO4)cc(OC)c1O (stereo not drawn) + CN(C)c1ccc(Nc2c3ccc(NC(=O)CCN4CCCC4)cc3nc3cc(NC(=O)CCN4CCCC4)ccc23)cc1
- IC50 (second compound 0.0316 µM): 6110 nM
- IC50 (second compound 0.1 µM): 6680 nM
- IC50 (second compound 0.316 µM): 5700 nM
- IC50 (second compound 1 µM): 5970 nM
- IC50 (second compound 3.16 µM): 5780 nM
- IC50 (second compound 10 µM): 5770 nM
- viability, T/C [1]: 98.2%
- viability, T/C [2]: 95.4%
- viability, T/C [3]: 80.3%
- viability, T/C [4]: 79.3%
- viability, T/C [5]: 58.8%
- viability, T/C [6]: 42.1%
- viability, T/C [7]: 96.3%
- viability, T/C [8]: 102%
- viability, T/C [9]: 84.3%
- viability, T/C [10]: 76.3%
- viability, T/C [11]: 59.6%
- viability, T/C [12]: 44.8%
- viability, T/C [13]: 102%
- viability, T/C [14]: 95.8%
- viability, T/C [15]: 79.1%
- viability, T/C [16]: 70.2%
- viability, T/C [17]: 60.2%
- viability, T/C [18]: 41.8%
- viability, T/C [19]: 101%
- viability, T/C [20]: 89.6%
- viability, T/C [21]: 83.3%
- viability, T/C [22]: 68.4%
- viability, T/C [23]: 61.6%
- viability, T/C [24]: 41.6%
- viability, T/C [25]: 90.8%
- viability, T/C [26]: 81.2%
- viability, T/C [27]: 84.6%
- viability, T/C [28]: 71.8%
- viability, T/C [29]: 60.9%
- viability, T/C [30]: 40.3%
- viability, T/C [31]: 74.4%
- viability, T/C [32]: 76.9%
- viability, T/C [33]: 71%
- viability, T/C [34]: 67%
- viability, T/C [35]: 58.2%
- viability, T/C [36]: 42.7%

Compound: Cc1[nH]c2ccccc2c1CCNCc1ccc(/C=C/C(=O)NO)cc1 + Cc1cnc(CNC(=O)c2c(=O)c3ccc(N4CCCN(C)CC4)nc3n3c2sc2ccccc23)cn1
- IC50 (second compound 0.0316 µM): 267 nM
- IC50 (second compound 0.1 µM): 155 nM
- IC50 (second compound 0.316 µM): < 0.999 nM
- IC50 (second compound 1 µM): < 0.999 nM
- IC50 (second compound 3.16 µM): < 0.999 nM
- IC50 (second compound 10 µM): < 0.999 nM
- viability, T/C (second compound 0.0316 µM, first compound 0.000999 µM): 91%
- viability, T/C (second compound 0.0316 µM, first compound 0.00316 µM): 93.7%
- viability, T/C (second compound 0.0316 µM, first compound 0.00999 µM): 106%
- viability, T/C [1]: 86.5%
- viability, T/C (second compound 0.0316 µM, first compound 0.0999 µM): 93.8%
- viability, T/C [3]: 42.5%
- viability, T/C (second compound 0.1 µM, first compound 0.000999 µM): 51.7%
- viability, T/C (second compound 0.1 µM, first compound 0.00316 µM): 65.6%
- viability, T/C (second compound 0.1 µM, first compound 0.00999 µM): 65.6%
- viability, T/C [7]: 77%
- viability, T/C (second compound 0.1 µM, first compound 0.0999 µM): 75.5%
- viability, T/C [9]: 22.2%
- viability, T/C (second compound 0.316 µM, first compound 0.000999 µM): 20.1%
- viability, T/C (second compound 0.316 µM, first compound 0.00316 µM): 27.2%
- viability, T/C (second compound 0.316 µM, first compound 0.00999 µM): 28.9%
- viability, T/C [13]: 47.6%
- viability, T/C (second compound 0.316 µM, first compound 0.0999 µM): 37.1%
- viability, T/C [15]: 3.64%
- viability, T/C (second compound 1 µM, first compound 0.000999 µM): 4.8%
- viability, T/C (second compound 1 µM, first compound 0.00316 µM): 4.9%
- viability, T/C (second compound 1 µM, first compound 0.00999 µM): 6.18%
- viability, T/C [19]: 9.89%
- viability, T/C (second compound 1 µM, first compound 0.0999 µM): 5.17%
- viability, T/C [21]: 0.17%
- viability, T/C (second compound 3.16 µM, first compound 0.000999 µM): 2.36%
- viability, T/C (second compound 3.16 µM, first compound 0.00316 µM): 3.21%
- viability, T/C (second compound 3.16 µM, first compound 0.00999 µM): 2.34%
- viability, T/C [25]: 1.12%
- viability, T/C (second compound 3.16 µM, first compound 0.0999 µM): 0.55%
- viability, T/C [27]: 0.15%
- viability, T/C (second compound 10 µM, first compound 0.000999 µM): 0.3%
- viability, T/C (second compound 10 µM, first compound 0.00316 µM): 0.24%
- viability, T/C (second compound 10 µM, first compound 0.00999 µM): 0.43%
- viability, T/C [31]: 0.42%
- viability, T/C (second compound 10 µM, first compound 0.0999 µM): 0.37%
- viability, T/C [33]: 0.26%

Compound: CC(C)n1c(=O)n(C)c2cnc3cc(F)c(-c4ccc(OCCCN5CCCCC5)nc4)cc3c21 + Cc1cnc(CNC(=O)c2c(=O)c3ccc(N4CCCN(C)CC4)nc3n3c2sc2ccccc23)cn1
- IC50 (second compound 0.0316 µM): > 10000 nM
- IC50 (second compound 0.1 µM): 3220 nM
- IC50 (second compound 0.316 µM): < 31.6 nM
- IC50 (second compound 1 µM): < 31.6 nM
- IC50 (second compound 3.16 µM): < 31.6 nM
- IC50 (second compound 10 µM): < 31.6 nM
- viability, T/C [1]: 76.9%
- viability, T/C [2]: 60.9%
- viability, T/C [3]: 73.1%
- viability, T/C [4]: 69.2%
- viability, T/C [5]: 73.3%
- viability, T/C [6]: 54.3%
- viability, T/C [7]: 43.9%
- viability, T/C [8]: 45.5%
- viability, T/C [9]: 52.8%
- viability, T/C [10]: 52%
- viability, T/C [11]: 57.7%
- viability, T/C [12]: 31.4%
- viability, T/C [13]: 32.7%
- viability, T/C [14]: 39.1%
- viability, T/C [15]: 33%
- viability, T/C [16]: 35.2%
- viability, T/C [17]: 39.1%
- viability, T/C [18]: 17.5%
- viability, T/C [19]: 9.65%
- viability, T/C [20]: 10.9%
- viability, T/C [21]: 8.38%
- viability, T/C [22]: 8.38%
- viability, T/C [23]: 11%
- viability, T/C [24]: 6.11%
- viability, T/C [25]: 3.19%
- viability, T/C [26]: 3.85%
- viability, T/C [27]: 4.08%
- viability, T/C [28]: 3.05%
- viability, T/C [29]: 4.81%
- viability, T/C [30]: 1.31%
- viability, T/C [31]: 3.24%
- viability, T/C [32]: 2.19%
- viability, T/C [33]: 2.95%
- viability, T/C [34]: 1.88%
- viability, T/C [35]: 2.22%
- viability, T/C [36]: 0.46%

Compound: COc1cccc2c1C(=O)c1c(O)c3c(c(O)c1C2=O)CC(O)(C(=O)CO)CC3OC1CC(N)C(O)C(C)O1 (stereo not drawn) + Cc1cnc(CNC(=O)c2c(=O)c3ccc(N4CCCN(C)CC4)nc3n3c2sc2ccccc23)cn1
- IC50 (second compound 0.0316 µM): 398 nM
- IC50 (second compound 0.1 µM): 212 nM
- IC50 (second compound 0.316 µM): < 31.6 nM
- IC50 (second compound 1 µM): < 31.6 nM
- IC50 (second compound 3.16 µM): < 31.6 nM
- IC50 (second compound 10 µM): < 31.6 nM
- viability, T/C [1]: 72.5%
- viability, T/C [2]: 51.6%
- viability, T/C [3]: 54.1%
- viability, T/C [4]: 35.8%
- viability, T/C [5]: 3.33%
- viability, T/C [6]: 0.11%
- viability, T/C [7]: 53%
- viability, T/C [8]: 57.9%
- viability, T/C [9]: 44.4%
- viability, T/C [10]: 29.3%
- viability, T/C [11]: 2.19%
- viability, T/C [12]: 0.13%
- viability, T/C [13]: 27.1%
- viability, T/C [14]: 29.6%
- viability, T/C [15]: 11.8%
- viability, T/C [16]: 4.55%
- viability, T/C [17]: 0.39%
- viability, T/C [18]: 0.1%
- viability, T/C [19]: 5.09%
- viability, T/C [20]: 6.32%
- viability, T/C [21]: 3.38%
- viability, T/C [22]: 1.67%
- viability, T/C [23]: 0.15%
- viability, T/C [24]: 0.09%
- viability, T/C [25]: 2.45%
- viability, T/C [26]: 2.76%
- viability, T/C [27]: 1.56%
- viability, T/C [28]: 0.62%
- viability, T/C [29]: 0.14%
- viability, T/C [30]: 0.12%
- viability, T/C [31]: 2.24%
- viability, T/C [32]: 2.09%
- viability, T/C [33]: 0.73%
- viability, T/C [34]: 0.23%
- viability, T/C [35]: 0.23%
- viability, T/C [36]: 0.19%
